# Test results: patent US6737383B1, “Herbicidal oxadiazolidines” (priority 1999, dated 2004)
# Assays:
# common groundsel = experiment: Test D common groundsel; type: in vivo, Senecio vulgaris; settings: Preemergence, 0 to 100 scale
# Summary of the method: (§1)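 Weed seeds planted in sandy loam; species kept apart in individual pots or compartments. Preemergence tests: treatment to soil surface within one day. Greenhouse growth, then visual injury scoring at 14–21 days (0–100).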
# common pursiane = experiment: Test D common purslane; type: in vivo, Portulaca oleracea; settings: Preemergence, 0 to 100 scale
# Summary of the method: as §1
# Spanishneedles = experiment: Test D Spanishneedles; type: in vivo, Bidens bipinnata; settings: Preemergence, 0 to 100 scale
# Summary of the method: as §1
# dallisgrass = experiment: Test D dallisgrass; type: in vivo, Paspalum dilatatum; settings: Preemergence, 0 to 100 scale
# Summary of the method: as §1
# guineagrass = experiment: Test D guineagrass; type: in vivo, Panicum maximum; settings: Preemergence, 0 to 100 scale
# Summary of the method: as §1
# large crabgrass = experiment: Test D large crabgrass; type: in vivo, Digitaria sanguinalis; settings: Preemergence, 0 to 100 scale
# Summary of the method: as §1
# common ragweed = experiment: Test D common ragweed; type: in vivo, Ambrosia elatior; settings: Preemergence, 0 to 100 scale
# Summary of the method: as §1
# Green foxtail [1] = experiment: Test D green foxtail; type: in vivo
# Summary of the method: as §1
# Green foxtail [2] = experiment: Test D green foxtail; type: in vivo; settings: Preemergence, 0 to 100 scale
# Summary of the method: as §1
# surinam grass = experiment: Test D surinam grass; type: in vivo, Brachiaria decumbens
# Summary of the method: as §1
# purple nutsedge = experiment: Test D purple nutsedge; type: in vivo, Cyperus rotundus; settings: Preemergence, 0 to 100 scale
# Summary of the method: as §1
# itchgrass = experiment: Test D itchgrass; type: in vivo, Rottboellia exaltata; settings: Preemergence, 0 to 100 scale
# Summary of the method: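 Scoring used a 0–100 visual injury scale, with 0 meaning no effect and 100 complete control, assessed 14–21 days after application alongside untreated pots. Preemergence treatments went onto sandy loam surfaces of separately potted seeds within a day of sowing.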
# pitted morningglory = experiment: Test D pitted morningglory; type: in vivo, Ipomoea lacunosa; settings: Preemergence, 0 to 100 scale
# Summary of the method: as §1
# bermuda-grass = experiment: Test D bermudagrass; type: in vivo, Cynodon dactylon; settings: Preemergence, 0 to 100 scale
# Summary of the method: as §1
# Alexandergrass = experiment: Test D Alexandergrass; type: in vivo, Brachiaria plantaginea; settings: Preemergence, 0 to 100 scale
# Summary of the method: as §1
# [3] = Rate 16 g/ha, 0 no injury, 100 complete control
# [4] = Rate 32 g/ha, 0 no injury, 100 complete control
# [5] = Rate 64 g/ha, 0 no injury, 100 complete control
# [6] = Rate 125 g/ha, 0 no injury, 100 complete control
# [7] = Rate 16 g/ha; Preemergence; 0 to 100 scale, 0 no injury, 100 complete control
# [8] = Rate 32 g/ha; Preemergence; 0 to 100 scale, 0 no injury, 100 complete control
# [9] = Rate 64 g/ha, Preemergence; 0 to 100 scale, 0 no injury, 100 complete control
# [10] = Rate 125 g/ha, Preemergence; 0 to 100 scale, 0 no injury, 100 complete control
# [11] = Rate 250 g/ha; Preemergence; 0 to 100 scale
# [12] = Rate 500 g/ha, Preemergence; 0 to 100 scale
smiles,measurement,setting,value
CC(C)N(C(=O)n1oc(=O)n(Cc2ccccc2)c1=O)c1ccc(F)cc1 [Compound 78],"Plant response rating, Com. groundsel",common groundsel; [3],0
same,"Plant response rating, Com. groundsel",common groundsel; [4],0
same,"Plant response rating, Com. groundsel",common groundsel; [5],0
same,"Plant response rating, Com. groundsel",common groundsel; [6],0
same,"Plant response rating, Com. groundsel",common groundsel; Rate 250 g/ha,0
same,"Plant response rating, Com. groundsel",common groundsel; Rate 500 g/ha,0
same,"Plant response rating, C. purslane",common pursiane; [3],0
same,"Plant response rating, C. purslane",common pursiane; [4],0
same,"Plant response rating, C. purslane",common pursiane; [5],0
same,"Plant response rating, C. purslane",common pursiane; [6],0
same,"Plant response rating, C. purslane",common pursiane; Rate 250 g/ha,0
same,"Plant response rating, C. purslane",common pursiane; Rate 500 g/ha,0
same,"Plant response rating, Spanishneedles",Spanishneedles; [3],0
same,"Plant response rating, Spanishneedles",Spanishneedles; [4],0
same,Spanishneedles plant response rating,Spanishneedles; [5],0
same,Spanishneedles plant response rating,Spanishneedles; [6],0
same,"Plant response rating, Spanishneedles",Spanishneedles; Rate 500 g/ha,0
same,"Plant response rating, Dallisgrass",dallisgrass; [3],0
same,"Plant response rating, Dallisgrass",dallisgrass; [4],0
same,"Plant response rating, Dallisgrass",dallisgrass; [5],75
same,"Plant response rating, Dallisgrass",dallisgrass; [6],100
same,"Plant response rating, Dallisgrass",dallisgrass; Rate 250 g/ha,100
same,"Plant response rating, Dallisgrass",dallisgrass; Rate 500 g/ha,100
same,"Plant response rating, Guineagrass",guineagrass; [3],20
same,"Plant response rating, Guineagrass",guineagrass; [4],20
same,"Plant response rating, Guineagrass",guineagrass; [5],65
same,"Plant response rating, Guineagrass",guineagrass; [6],85
same,"Plant response rating, Guineagrass",guineagrass; Rate 250 g/ha,100
same,"Plant response rating, Guineagrass",guineagrass; Rate 500 g/ha,100
same,"Plant response rating, Large crabgrass",large crabgrass; [3],0
same,"Plant response rating, Large crabgrass",large crabgrass; [4],40
same,"Plant response rating, Large crabgrass",large crabgrass; [5],98
same,"Plant response rating, Large crabgrass",large crabgrass; [6],100
same,"Plant response rating, Large crabgrass",large crabgrass; Rate 250 g/ha,100
same,"Plant response rating, Large crabgrass",large crabgrass; Rate 500 g/ha,100
same,"Plant response rating, C. ragweed",common ragweed; [3],0
same,"Plant response rating, C. ragweed",common ragweed; [4],0
same,"Plant response rating, C. ragweed",common ragweed; [5],0
same,"Plant response rating, C. ragweed",common ragweed; [6],0
same,"Plant response rating, C. ragweed",common ragweed; Rate 250 g/ha,0
same,"Plant response rating, C. ragweed",common ragweed; Rate 500 g/ha,0
same,"Plant response rating, Green foxtail","Green foxtail [1]; Preemergence; Rate 16 g/ha; 0 to 100 scale, 0 no injury, 100 complete control",0
same,"Plant response rating, Green foxtail","Green foxtail [1]; Preemergence; Rate 32 g/ha; 0 to 100 scale, 0 no injury, 100 complete control",75
same,"Plant response rating, Green foxtail",Green foxtail [1]; [7],0
same,"Plant response rating, Green foxtail",Green foxtail [1]; [8],75
same,Green foxtail plant response rating,Green foxtail [1]; [9],85
same,"Plant response rating, Green foxtail",Green foxtail [1]; [9],85
same,Green foxtail plant response rating,Green foxtail [1]; [10],100
same,"Plant response rating, Green foxtail",Green foxtail [1]; [10],100
same,"Plant response rating, Green foxtail",Green foxtail [1]; [11],100
same,"Plant response rating, Green foxtail",Green foxtail [1]; [12],100
same,"Plant response rating, Green foxtail",Green foxtail [2]; Rate 250 g/ha,100
same,"Plant response rating, Green foxtail",Green foxtail [2]; Rate 500 g/ha,100
same,"Plant response rating, Surinam grass",surinam grass; [7],0
same,"Plant response rating, Surinam grass",surinam grass; [8],0
same,Surinam grass plant response rating,surinam grass; [9],20
same,Surinam grass plant response rating,surinam grass; [10],30
same,"Plant response rating, Surinam grass",surinam grass; [11],85
same,"Plant response rating, Surinam grass",surinam grass; [12],96
same,"Plant response rating, Surinam grass",surinam grass; Rate 500 g/ha; Preemergence; 0 to 100 scale,98
same,"Plant response rating, Purple nutsedge",purple nutsedge; [3],0
same,"Plant response rating, Purple nutsedge",purple nutsedge; [4],0
same,Purple nutsedge plant response rating,purple nutsedge; [5],0
same,Purple nutsedge plant response rating,purple nutsedge; [6],0
same,"Plant response rating, Purple nutsedge",purple nutsedge; Rate 250 g/ha,0
same,"Plant response rating, Purple nutsedge",purple nutsedge; Rate 500 g/ha,0
same,"Plant response rating, Itchgrass",itchgrass; [3],0
same,"Plant response rating, Itchgrass",itchgrass; [4],0
same,"Plant response rating, Itchgrass",itchgrass; [5],0
same,"Plant response rating, Itchgrass",itchgrass; [6],0
same,"Plant response rating, Itchgrass",itchgrass; Rate 250 g/ha,10
same,"Plant response rating, Itchgrass",itchgrass; Rate 500 g/ha,20
same,"Plant response rating, P. morninglory",pitted morningglory; [3],0
same,"Plant response rating, P. morninglory",pitted morningglory; [4],0
same,"Plant response rating, P. morninglory",pitted morningglory; [5],0
same,"Plant response rating, P. morninglory",pitted morningglory; [6],0
same,"Plant response rating, P. morninglory",pitted morningglory; Rate 250 g/ha,0
same,"Plant response rating, P. morninglory",pitted morningglory; Rate 500 g/ha,0
same,"Plant response rating, Bermudagrass",bermuda-grass; [3],75
same,"Plant response rating, Bermudagrass",bermuda-grass; [4],85
same,"Plant response rating, Bermudagrass",bermuda-grass; [5],90
same,"Plant response rating, Bermudagrass",bermuda-grass; [6],98
same,"Plant response rating, Bermudagrass",bermuda-grass; Rate 250 g/ha,100
same,"Plant response rating, Bermudagrass",bermuda-grass; Rate 500 g/ha,100
same,"Plant response rating, Alexandergrass",Alexandergrass; [3],0
same,"Plant response rating, Alexandergrass",Alexandergrass; [4],0
same,"Plant response rating, Alexandergrass",Alexandergrass; [5],30
same,"Plant response rating, Alexandergrass",Alexandergrass; [6],75
same,"Plant response rating, Alexandergrass",Alexandergrass; Rate 250 g/ha,75
same,"Plant response rating, Alexandergrass",Alexandergrass; Rate 500 g/ha,100
